{
  "source": "paper PMC11189555",
  "about": "“Aryl amino acetamides prevent Plasmodium falciparum ring development via targeting the lipid-transfer protein PfSTART1” (Nature Communications, 2024)",
  "key": {"[1]": {"tested_on": "3D7 P. falciparum parasites", "test": "Growth inhibition assay (72 h, LDH activity)", "format": "cell-based, Plasmodium falciparum", "conditions": "for EC50: Plasmodium falciparum", "experimental": "(§1) Parasite growth assays with inhibitory compounds were performed as per[11] and are fully described in the Supplementary Information. […]\n(§2) Growth inhibition assays. Synchronised ring-stage parasites (0.3-0.6% parasitemia, 2% haematocrit) were grown for 72 h in a serial-dilution of the compound under […]\n(§3) and compound 4. Note that M-833 was first purchased from MolPort (MolPort -002-267-916) then made in-house at WEHI: the differences observed in EC50s across experiments are attributed to the different batches of M -833. For some experiments, 0, 0.25 or 2.5 mM of glucosamine (GlcN) was also added. Experiments were set up in technical duplicates or triplicates. Following a freeze -thaw cycle, lactate dehydrogenase (LDH) activity was assessed as an indicator of parasite growt h 5. 30 μL of parasite culture was incubated for 30 min in the dark with 75 μL Malstat mixture (0.1 M Tris pH 9.0, 20 g/L lactic acid, pH 7.5, 0.2% Triton-X100, 0.5 g/L acetylpyridine adenine dinucleotide (APAD, Sigma), 200 μg/mL nitroblue tetrazolium (NBT; Sigma), 1 μg/mL phenozine ethosulfate (PES; Sigma)). Absorbance was then measured at 650 nm, transformed using the formula below, plotted against the logarithm of the concentrations, and a non-linear regression (log(inhibitor) vs. response, variable slope) was calculated using GraphPad Prism to assess the half-inhibitory […]\n(§4) Growth inhibition % = (1 − average(sample)− average(uRBC)) ∗ 100 […]\n(§5) The DMSO samples were also used to assess growth of parasite in the presence of 0.25 and 2.5 mM GlcN (normalised by DMSO in 0 mM GlcN). […]"}, "[2]": {"tested_on": "PopD-D7 M-833 resistant clone (PfSTART1 N309K)", "test": "Growth inhibition assay (72 h, LDH activity)", "format": "cell-based, Plasmodium falciparum", "experimental": "The drug was then removed, and parasites were allowed to recover. Another cycle of drug treatment (3 μM M-833) was then resumed. The resistant lines were cloned out by limiting dilution (diluting the culture into a 96-well plate to achieve an average of ~0.3 parasites per well), prior to growth inhibition assays and genomic DNA (gDNA) extraction (DNeasy Blood and Tissue kit (Qiagen)[18].\nas §1, §2, §3, §4, §5"}},
  "note": "Where two headings read alike, the source gives them in different places.",
  "data": [
    {"compound": "CN(C(=O)C(C)(C)Nc1ccc(Cl)c(S(=O)(=O)N2CCOCC2)c1)c1ccc(F)c(Cl)c1", "note": "[compound 4]", "values": [
      {"measurement": "Growth inhibition % (LDH, relative to DMSO)", "setting": "[1]; 3D7, 0.00152416 uM, biological replicate 3 (2023-02-07)", "value": -17.5745},
      {"measurement": "Growth inhibition % (LDH, relative to DMSO)", "setting": "[1]; 3D7, 0.00304832 uM, biological replicate 1 (2021-10-25)", "value": -18.3864},
      {"measurement": "Growth inhibition % (LDH, relative to DMSO)", "setting": "[1]; 3D7, 0.00457247 uM, biological replicate 3 (2023-02-07)", "value": -17.9271},
      {"measurement": "Growth inhibition % (LDH, relative to DMSO)", "setting": "[1]; 3D7, 0.00914495 uM, biological replicate 1 (2021-10-25)", "value": -26.0151},
      {"measurement": "Growth inhibition % (LDH, relative to DMSO)", "setting": "[1]; 3D7, 0.0137174 uM, biological replicate 3 (2023-02-07)", "value": -25.0392},
      {"measurement": "Growth inhibition % (LDH, relative to DMSO)", "setting": "[1]; 3D7, 0.0274348 uM, biological replicate 1 (2021-10-25)", "value": -36.8606},
      {"measurement": "Growth inhibition % (LDH, relative to DMSO)", "setting": "[1]; 3D7, 0.0411523 uM, biological replicate 3 (2023-02-07)", "value": -21.1207},
      {"measurement": "Growth inhibition % (LDH, relative to DMSO)", "setting": "[1]; 3D7, 0.078125 uM, biological replicate 2 (2023-02-07)", "value": -4.3247},
      {"measurement": "Growth inhibition % (LDH, relative to DMSO)", "setting": "[1]; 3D7, 0.0823045 uM, biological replicate 1 (2021-10-25)", "value": -42.8019},
      {"measurement": "Growth inhibition % (LDH, relative to DMSO)", "setting": "[1]; 3D7, 0.123457 uM, biological replicate 3 (2023-02-07)", "value": -34.2281},
      {"measurement": "Growth inhibition % (LDH, relative to DMSO)", "setting": "[1]; 3D7, 0.15625 uM, biological replicate 2 (2023-02-07)", "value": -4.463},
      {"measurement": "Growth inhibition % (LDH, relative to DMSO)", "setting": "[1]; 3D7, 0.246914 uM, biological replicate 1 (2021-10-25)", "value": -45.3858},
      {"measurement": "Growth inhibition % (LDH, relative to DMSO)", "setting": "[1]; 3D7, 0.3125 uM, biological replicate 2 (2023-02-07)", "value": -3.423},
      {"measurement": "Growth inhibition % (LDH, relative to DMSO)", "setting": "[1]; 3D7, 0.37037 uM, biological replicate 3 (2023-02-07)", "value": -26.6654},
      {"measurement": "Growth inhibition % (LDH, relative to DMSO)", "setting": "[1]; 3D7, 0.625 uM, biological replicate 2 (2023-02-07)", "value": -4.556},
      {"measurement": "Growth inhibition % (LDH, relative to DMSO)", "setting": "[1]; 3D7, 0.740741 uM, biological replicate 1 (2021-10-25)", "value": -43.9445},
      {"measurement": "Growth inhibition % (LDH, relative to DMSO)", "setting": "[1]; 3D7, 1.11111 uM, biological replicate 3 (2023-02-07)", "value": -37.6176},
      {"measurement": "Growth inhibition % (LDH, relative to DMSO)", "setting": "[1]; 3D7, 1.25 uM, biological replicate 2 (2023-02-07)", "value": 10.8002},
      {"measurement": "Growth inhibition % (LDH, relative to DMSO)", "setting": "[1]; 3D7, 2.22222 uM, biological replicate 1 (2021-10-25)", "value": -10.0721},
      {"measurement": "Growth inhibition % (LDH, relative to DMSO)", "setting": "[1]; 3D7, 2.5 uM, biological replicate 2 (2023-02-07)", "value": 18.1545},
      {"measurement": "Growth inhibition % (LDH, relative to DMSO)", "setting": "[1]; 3D7, 3.33333 uM, biological replicate 3 (2023-02-07)", "value": -31.3871},
      {"measurement": "Growth inhibition % (LDH, relative to DMSO)", "setting": "[1]; 3D7, 5 uM, biological replicate 2 (2023-02-07)", "value": 37.6735},
      {"measurement": "Growth inhibition % (LDH, relative to DMSO)", "setting": "[1]; 3D7, 6.66667 uM, biological replicate 1 (2021-10-25)", "value": 35.3489},
      {"measurement": "Growth inhibition % (LDH, relative to DMSO)", "setting": "[1]; 3D7, 10 uM, biological replicate 2 (2023-02-07)", "value": 60.2451},
      {"measurement": "Growth inhibition % (LDH, relative to DMSO)", "setting": "[1]; 3D7, 10 uM, biological replicate 3 (2023-02-07)", "value": 26.4107},
      {"measurement": "Growth inhibition % (LDH, relative to DMSO)", "setting": "[1]; 3D7, 20 uM, biological replicate 1 (2021-10-25)", "value": 75.5669},
      {"measurement": "Growth inhibition % (LDH, relative to DMSO)", "setting": "[1]; 3D7, 20 uM, biological replicate 2 (2023-02-07)", "value": 87.1878},
      {"measurement": "EC50", "setting": "[1]; 3D7, 72 h, Supplementary Table 1, 3D7, 72 h, read-out: EC50", "value": 10, "unit": "µM"},
      {"measurement": "EC50", "setting": "[1]; 3D7, Fig 4A, 3D7 parasites, read-out: Pf 3D7 EC50 (SD)", "value": "> 10", "unit": "µM"},
      {"measurement": "EC50", "setting": "[2]; Plasmodium falciparum, Supplementary Table 1, PopD-D7 (N309K), 72 h, read-out: EC50", "value": 15.7, "unit": "µM"},
      {"measurement": "resistance of the line compared with 3D7", "setting": "[2]; PopD-D7 (N309K), Fig 4B", "value": "No change in EC50"},
      {"measurement": "sample/DMSO", "setting": "[2]; PopD-D7, 0.00152416 uM, biological replicate 3", "value": -12.3682},
      {"measurement": "sample/DMSO", "setting": "[2]; PopD-D7, 0.00304832 uM, biological replicate 1", "value": -15.0464},
      {"measurement": "sample/DMSO", "setting": "[2]; PopD-D7, 0.00457247 uM, biological replicate 3", "value": -16.5856},
      {"measurement": "sample/DMSO", "setting": "[2]; PopD-D7, 0.00914495 uM, biological replicate 1", "value": -23.9863},
      {"measurement": "sample/DMSO", "setting": "[2]; PopD-D7, 0.0137174 uM, biological replicate 3", "value": -19.1403},
      {"measurement": "sample/DMSO", "setting": "[2]; PopD-D7, 0.0274348 uM, biological replicate 1", "value": -36.3947},
      {"measurement": "sample/DMSO", "setting": "[2]; PopD-D7, 0.0411523 uM, biological replicate 3", "value": -26.0746},
      {"measurement": "sample/DMSO", "setting": "[2]; PopD-D7, 0.078125 uM, biological replicate 2", "value": -26.6126},
      {"measurement": "sample/DMSO", "setting": "[2]; PopD-D7, 0.0823045 uM, biological replicate 1", "value": -40.9868},
      {"measurement": "sample/DMSO", "setting": "[2]; PopD-D7, 0.123457 uM, biological replicate 3", "value": -30.0892},
      {"measurement": "sample/DMSO", "setting": "[2]; PopD-D7, 0.15625 uM, biological replicate 2", "value": -24.0527},
      {"measurement": "sample/DMSO", "setting": "[2]; PopD-D7, 0.246914 uM, biological replicate 1", "value": -42.7943},
      {"measurement": "sample/DMSO", "setting": "[2]; PopD-D7, 0.3125 uM, biological replicate 2", "value": -25.1299},
      {"measurement": "sample/DMSO", "setting": "[2]; PopD-D7, 0.37037 uM, biological replicate 3", "value": -34.7932},
      {"measurement": "sample/DMSO", "setting": "[2]; PopD-D7, 0.625 uM, biological replicate 2", "value": -6.501},
      {"measurement": "sample/DMSO", "setting": "[2]; PopD-D7, 0.740741 uM, biological replicate 1", "value": -38.9839},
      {"measurement": "sample/DMSO", "setting": "[2]; PopD-D7, 1.11111 uM, biological replicate 3", "value": -37.8751},
      {"measurement": "sample/DMSO", "setting": "[2]; PopD-D7, 1.25 uM, biological replicate 2", "value": 3.536},
      {"measurement": "sample/DMSO", "setting": "[2]; PopD-D7, 2.22222 uM, biological replicate 1", "value": -23.9863},
      {"measurement": "sample/DMSO", "setting": "[2]; PopD-D7, 2.5 uM, biological replicate 2", "value": 14.2567},
      {"measurement": "sample/DMSO", "setting": "[2]; PopD-D7, 3.33333 uM, biological replicate 3", "value": -28.5888},
      {"measurement": "sample/DMSO", "setting": "[2]; PopD-D7, 5 uM, biological replicate 2", "value": 26.676},
      {"measurement": "sample/DMSO", "setting": "[2]; PopD-D7, 6.66667 uM, biological replicate 1", "value": 9.624},
      {"measurement": "sample/DMSO", "setting": "[2]; PopD-D7, 10 uM, biological replicate 2", "value": 49.8923},
      {"measurement": "sample/DMSO", "setting": "[2]; PopD-D7, 10 uM, biological replicate 3", "value": 18.8159},
      {"measurement": "sample/DMSO", "setting": "[2]; PopD-D7, 20 uM, biological replicate 1", "value": 64.3869},
      {"measurement": "sample/DMSO", "setting": "[2]; PopD-D7, 20 uM, biological replicate 2", "value": 82.347},
      {"measurement": "Fold change compared to 3D7", "setting": "[2]; Supplementary Table 1, EC50 on PopD-D7 vs 3D7", "value": 1.6, "unit": "fold"}
    ]}
  ]
}
